Assay [1] relates to Farnesyl Transferase (Ras farnesylation) in COS-7 cells. Briefly: Cellular assay for farnesyl transferase activity (cytosolic Ras in COS-7 cells, Western blot). The class given is cell-based. Conditions: 24 hr treatment, cytosolic Ras/actin ratio, read-out: Cell IC50. The source says: Ras is a small GTP binding protein whose farnesylation and condequent membrane association can be reduced by inhibition of farnesyl transferase (Appels et al., Oncologist 10:565-578, 2005; Basso et al., J. Lipid Res. 47:15-31, 2006; Tamanoi, Trends Biochem. Sci. 18:349-353, 1993; each of which is incorporated herein by reference). Treatment with certain farnesyl transferase inhibitors (FTIs) reduces the farnesylation and membrane association of Ras, leading to accumulation of Ras in the cytosol of the cells. An assay was developed to monitor FTase activity, based on the amount of Ras present in the cytosolic fraction of COS-7 cells after FTI treatment. On day 0, COS-7 cells were passaged into 6-well plates at a density of 4×10^5 cells/well. Beginning on day 1, cells were treated with test compounds (e.g. FTIs) in 0.2% DMSO for 24 hr. On day 2, cells were lysed by passage through a 25 gauge needle 10 times in 100 μl Buffer 1 (50 mM Tris, 140 mM NaCl, 2 mM EDTA, protease inhibitor cocktail, pH 7.4) and lysates were centrifuged at 16,000 g for 30 min to isolate the cytosolic fraction (supernatant). The cytosolic fraction was analyzed by Western blot using anti-Ras antibody and anti-actin antibody for loaning control.
Western Blotting: Following transfer of SDS gels onto NC membrane, all membranes were blocked with 5% non-fat milk in TBST (50 mM Tris-HCl pH7.4, 150 mM NaCl, 0.1% Tween 20), incubated with primary antibody overnight with 1% BSA in TBST, washed three times with TBST, and incubated with horseradish peroxidase-conjugated secondary antibody for 1 hour (Promega). Bound antibodies were detected using enhanced chemiluminascence (NEM). Results were quantified based on densitometric analysis of Ras signal normalized to actin signal (Ras/actin ratio). Dose response curves were generated for serial dilutions of test compounds, which were then used to measure an IC50 for the test compound by curve fitting with Prism or equivalent software product.

Assay [2] concerns the target farnesyl transferase (FTase) (Homo sapiens, UniProt P49354+P49356). Briefly: In vitro farnesyl transferase assay (fluorescent dansyl-pentapeptide). Conditions: dGCVLS 4 μM, FPP 5 μM, 25-50 nM FTase, 1% DMSO, room temperature. The class given is biochemical. As for the experimental part:
Compounds were analyzed for inhibition of farnesyl transferase (FTase) activity using an established fluorescent peptide-based assay (Pompliano et al 1992 J. Am. Chem. Soc. 114:7945; U.S. Pat. No. 5,525,479, issued Jun. 11, 1996; each of which is incorporated herein by reference). In summary, a dansyl-pentapeptide (dGCVLS) was incubated at 4 μM with 5 μM farnesyl pyrophosphate (FPP) and 25-50 nM FTase in 50 mM Tris-HCl/12 mM MgCl2/12 μM ZnCl2/6 mM DTT/0.2% octyl-D-β-glucopyranoside/pH 7.0 at room temperature while the increase in fluorescence of the peptide at Ex=340 nm, Em=485 nm upon farnesyl addition was monitored continuously by a spectrofluorometer. Test compounds were added to the reaction mixture and the final results were compared to negative control (with solvent only), to allow measurement of the degreee of inhibition at each concentration of compound tested. Serial dilution series of test compounds were used to allow measurement of the IC50s and calculation of the resultant Ki. The linear portion of the reaction progress curve thus created was measured to yield an initial rate (Vo); a plot of Vo versus inhibitor concentration was fit by non-linear regression analysis (GraphPad Prism software) to calculate the […] and the Ki. All reactions in the inhibitor experiments contain a final concentration of 1% DMSO.

The test system of assay [3] is isolated islets / INS1 cells. Briefly: Oxygen consumption, Seahorse XF24 bioenergetic assay. As to conditions: 1 nM. The class given is cell-based, mice. As for the experimental part:
Impaired mitochondrial function is shown by a decreased rate of oxygen consumption. For example, INS1 cells exposed to palmitate show a significant decrease in oxygen consumption rate, both under basal glucose and following stimulation with glucose. The effect of compound 28 at 1 nM on oxygen consumption was determined at 2.5 and 3.5 day incubation time points. Oxygen consumption in INS1 was measured using a Seahorse XF24 bioenergetic assay. Assays have been previously described in detail (See, Wu M, et al. Am J Physiol Cell Physiol 2007; 292:C125-36).
In one aspect, islet oxygen consumption was measured using the XF24 Islet Capture Microplate available from Seahorse Biosciences. An example of an assay to measure islet consumption is as follows:
Modified XF Assay Media (MA Media): Supplement XF DMEM assay media with 3 mM glucose and 1% FBS to run whole islets. (FBS is needed to prevent islets from becoming too adherent). Components/Formulation of Modified XF Assay Media: […]
The XF assay template is prepared via the Assay Wizard using the XF24 operation manual. The assay template is uploaded to the XF24 Analyzer before starting the assay. […]
Whole islets are prepared by standard laboratory procedure. […] The islets are counted under a dissecting microscope. […] The count of the islets is determined and the volume adjusted so that there are ˜70 islets for every 100 microliters of the islet suspension. […]

For orientation: IC50 means the midpoint of a concentration-inhibition curve. As usually defined, the Ki is a measure of affinity in units of concentration, obtained from inhibition or displacement.

On to `N#Cc1ccc(Cn2cncc2CN[C@H]2CCN([C@@H]3CCOc4ccc(F)cc43)C2=O)cc1` [Compound 28], for which the IC50 in assay [1] was determined as 1.4 nM. For the same molecule, in assay [2], affinity was put at a Ki of 0.059 nM. Moreover, in assay [3] (2.5 days incubation (FIG. 1)), the “increase in mitochondrial respiration (Oxygen Consumption Rate vs. time, % of base line)” value is recorded as 50%. In addition, the “increase in oxygen consumption” value in assay [3] (isolated islets (FIGS. 1 and 2)) is on record as 50%.
Turning to `N#Cc1ccc(Cn2cncc2CN[C@H]2CCN([C@@H]3CCOc4ccc(Cl)cc43)C2=O)cc1` [Compound 29], in assay [1], the IC50 is 1.8 nM. In addition, the Ki in assay [2] was determined as 0.021 nM.
Take `N#Cc1ccc(Cn2cncc2CN[C@H]2CCN([C@@H]3CCCc4ccc(Cl)cc43)C2=O)cc1` [Compound 30]: in assay [1], the IC50 was found to be 2.8 nM. In assay [2], this molecule had a Ki of 0.12 nM.
Take `N#Cc1ccc(Cn2cncc2CN[C@H]2CCN(C3CCOc4ccc(F)cc43)C2=O)cc1` (stereo partly shown) [Compound 70]: the IC50 in assay [1] was found to be 42 nM.
Still for that read-out and setting: as for `N#Cc1ccc(Cn2cncc2CN[C@@H]2CCN([C@@H]3CCOc4ccc(F)cc43)C2=O)cc1` [Compound 71], the figure is 2.5 nM.
